This note sets out measurements from patent publication US8471027B2, “Adamantyl compounds” (Hoffmann-La Roche Inc., priority 2011, dated 2013).

As usually defined, the EC50 is the midpoint of the concentration-response curve. The IC50 is the concentration that inhibits the measured activity by half. A high value points to weaker potency.

Experiment [1] relates to phospho(Ser63)-c-jun in HK-2 cells. Kind of experiment: Cell-based assay for JNK inhibitors: in-cell ELISA of TNFα-stimulated phospho(Ser63)-c-jun in HK-2 cells. As to conditions: Homo sapiens, 10 ng/mL TNFα, 60 min preincubation with compound. How it is done: Cell-Based Assay for JNK Inhibitors
The cell-based assay employed the in-cell ELISA method to determine the ability of compounds to prevent the generation of phospho(Ser63)-c-jun in HK-2 cells (human proximal tubule cells) in response to stimulation with tumor necrosis factor α (TNFα). In brief, for quantification of phospho(Ser63)-c-jun, the cells (in 96-well format) were fixed and permeablized then incubated sequentially with a rabbit anti-phospho-c-jun First Antibody specific for the presence of the phospho-Ser63 epitope and a donkey anti-rabbit IgG Second Antibody linked to horseradish peroxidase (HRP) for colorimetric quantitation of binding. For determination of non-specific binding of the First Antibody, Blank wells were preincubated with a mouse anti-phospho(Ser63)-c-jun Blocking Antibody that prevented specific binding of the First Antibody to the phospho-Ser63 epitope, but which was not recognized by the donkey anti-rabbit IgG Second Antibody. […] Blank wells received no TNFα stimulation or compound. Additional Control wells received TNFα stimulation, but no compound. The signal obtained in this case was considered the value for 0% inhibition (Control value).
Stock cultures of HK-2 cells (ATCC, Manassas, Va.) were grown under a 5% CO2/[…] atmosphere at 37 degrees C. in Keratinocyte-SFM medium (KSFM, Invitrogen, Grand Island, N.Y.) containing 5 μg/L epidermal growth factor and 5 mg/L bovine pituitary extract (both supplied with the medium), additionally supplemented with 10% (v/v) fetal calf serum (FCS; Invitrogen, Grand Island, N.Y.) and 1% (v/v) antibiotic-antimycotic (ABAM: Sigma, St. Louis, Mo.). For assays, cells were seeded in collagen coated 96-well polystyrene plates (BD Biosciences, Franklin Lakes, N.J.) at a density of 40,000 cells/well and cultured for 24 h in the same medium (100 μL/well) followed by a further 16-24 h in 100 μL of similar medium, but without FCS. […] Cells were incubated for a further 30 minutes and then the medium was aspirated and the wells washed with 100 μL/well PBS followed by the addition of 100 μL 3.7% (v/v) Formaldehyde (Fisher Scientific, Fair Lawn, N.J.) in PBS. Plates were then allowed to stand at room temperature for 20 minutes before being washed with 200 μL/well of PBS. (Further steps were performed immediately or the plates were stored at 4 degrees C. and the assay completed the next day.) To each well was added 100 μL 1% (v/v) TritonX-100 (Sigma, St. Louis, Mo.) in PBS followed by 20 minutes standing at room temperature, washing with 200 μL/well PBS, the addition of 100 μL/well of Quenching buffer (1% (v/v) hydrogen peroxide (Sigma, St. Louis, Mo.) and 0.1% (w/v) sodium azide (Fisher Scientific, Fair Lawn, N.J.)) in PBS and a further 20 minutes at room temperature. Plates were then washed twice with 200 μL/well of 0.1% (v/v) Tween-20 (Teknova, Hollister, Calif.) in PBS before addition of 200 μL/well of 2% BSA/0.10% Tween-20 in PBS and a further 1 hour at room temperature. At this time, buffer was removed from Blank wells and replaced with 90 μL/well of mouse anti-phospho-c-jun-Ser63 (BD Bioscience, 558036) diluted 1:4000 in PBS containing 1% BSA/0.1% Tween-20 (Antibody Dilution Buffer). All other wells are replaced with 90 μL/well of rabbit anti-phospho-c-jun-Ser63 (Cell Signaling, 9261) diluted 1:250 in Antibody Dilution Buffer. After a further one hour, rabbit anti-phospho-c-jun-Ser63 is added directly to the solution in the Blank wells resulting in 1:250 dilution of this antibody. Plates were then placed on a slowly rotating platform at 4 degrees C. overnight. Wells were then washed thrice with 200 μL/well PBS/0.1% Tween-20. After addition of the third wash, the plates were placed on a slowly rotating platform for 15 minutes at room temperature. […]
For orientation: In an ELISA, binding on a coated surface is turned into a signal by an enzyme label.

Experiment [2] has as its system phospho-(Ser63)-c-jun. Kind of experiment: Mouse In Vivo TNFα-Induced Kidney and Liver Phospho-c-Jun Assay. Also noted: species or system C57/BL6 mice. As to conditions: Example B, procedures identical to Example A. The protocol: Male C57/BL6 mice were obtained from Jackson Labs and acclimatized for at least one week prior to use at age 10-12 weeks. Mice (n=8 per group) were administered Compound I-1 (Group 3; 50 mg/kg from a 12.5 mg/mL preparation in 20% (v/v)DMSO/80% (v/v) PEG400) or vehicle alone (Groups 1 and 2) via oral gavage. One hour later, mice received an intravenous challenge of 5 μg/kg recombinant mouse TNFα (Sigma) in saline (Groups 2 and 3) or saline alone (Group 1). After a further 1 h, the animals were killed by carbon dioxide inhalation. Kidneys and livers were removed, rapidly frozen in liquid nitrogen and stored at −80 degrees until analysis.
For analysis of livers, portions of frozen tissue (100-200 mg) were homogenized in lysis buffer (Cell Signaling Technology) supplemented with 1% (v/v) of each of Phosphatase Inhibitor Cocktail-1 (Sigma), Phosphatase Inhibitor Cocktail-2 (Sigma), Protease Inhibitor Cocktail (Sigma) and 1 mM AEBSF (Sigma). The phospho-(Ser63)-c-jun content was quantified using an ELISA kit (Cell Signaling Technology).
Experimental procedures were identical to Example A, but using 7-chloro-3-(4-methanesulfonyl-benzyl)-4-oxo-1-phenyl-1,4-dihydro-quinoline-2-carboxylic acid methyl ester.

Experiment [3] concerns the target JNK1 (Homo sapiens, UniProt P45983). Kind of experiment: In vitro JNK1 Assay (TR-FRET, phosphorylation of GST-c-Jun). It is filed as biochemical. The conditions noted are these: 0.2 nM JNK1, 26.7 nM GST-c-Jun, 2 μM ATP. The protocol:
Phosphorylation of GST-c-Jun protein (amino acid residues 1-79) was measured as JNK1 activity. […] The reaction buffer contained 50 mM HEPES, pH 7.0, 10 mM MgCl2, 1 mM DTT, 0.1 mM Na3 VO4 and 0.2 mg/mL BSA. After 30 min. incubation at room temperature, the reaction was terminated by adding buffer containing 8 mM EDTA and a polyclonal anti-phospho-c-Jun antibody (Cell Signaling #9261L), followed by an additional incubation of 30 min. at room temperature. […] Time-resolved Fluorescence Resonance Energy Transfer (TR-FRET) signals were measured 1 hr. later on the EnVision reader (Perkin Elmer). Compound potency was assessed at 10 serially diluted concentrations. Percentage of inhibition at each concentration was determined to generate an IC50 value for each compound.
Background: In TR-FRET formats the signal depends on donor and acceptor labels being close together.

Experiment [4] deals with phospho-(Ser63)-c-jun. Kind of experiment: Rat In Vivo TNFα-Induced Kidney Phospho-c-Jun Assay. Further details: species or system Sprague-Dawley rats. The conditions noted are these: Example D, 2 doses of 75 mg/kg oral (0 and 12 h), TNFα 2.5 ug/kg i.v. at 23 h, killed 1 h later, normalized to Group 2 as 100%, mean (standard deviation). The protocol: Male Sprague-Dawley rats were obtained from Charles River and acclimatized for at least one week prior to use at age 6-8 weeks. Rats (n=8 per group) were administered Compound I-1 (Group 3; 75 mg/kg from a Microprecipitated Bulk Powder formulation resuspended in Klucel vehicle at 18.75 mg/mL) or vehicle alone (Groups 1 and 2) via oral gavage. Seven hours later, rats received an intravenous challenge of 2.5 μg/kg recombinant rat TNFα (Sigma) in saline (Groups 2 and 3) or saline alone (Group 1). After a further 1 h, the animals were killed by carbon dioxide inhalation. Kidneys were removed, rapidly frozen in liquid nitrogen and stored at −80 degrees until analysis.
Sample analysis was performed as described for mouse kidneys in Example a.
Male Sprague-Dawley rats were obtained from Charles River and acclimatized for at least one week prior to use at age 6-8 weeks. Rats (n=8 per group) were administered Compound I-1 (Groups 3 and 4; 75 mg/kg from a Microprecipitated Bulk Powder formulation resuspended in Klucel vehicle at 18.75 mg/mL) or vehicle alone (Groups 1 and 2) via oral gavage. Group 3 received an additional identical dose 12 hours later. Group 4 received an additional identical dose at 8 and 16 hours after the first dose. […]

Sequence of JNK1 (P45983 whole entry, species assumed, the tested form may be a part): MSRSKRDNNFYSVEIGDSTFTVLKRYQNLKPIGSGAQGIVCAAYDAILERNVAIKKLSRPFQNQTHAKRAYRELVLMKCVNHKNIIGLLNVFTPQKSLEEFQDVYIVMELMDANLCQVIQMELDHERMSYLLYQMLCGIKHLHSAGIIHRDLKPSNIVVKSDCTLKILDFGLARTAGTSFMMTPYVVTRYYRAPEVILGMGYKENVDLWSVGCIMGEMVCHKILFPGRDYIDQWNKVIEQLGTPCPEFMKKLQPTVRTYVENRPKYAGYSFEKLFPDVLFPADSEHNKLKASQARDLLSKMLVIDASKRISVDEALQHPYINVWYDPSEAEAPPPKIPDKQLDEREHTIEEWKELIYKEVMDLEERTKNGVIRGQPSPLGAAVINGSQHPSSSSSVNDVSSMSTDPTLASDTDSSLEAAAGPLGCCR

`COC(=O)c1c(Cc2ccc(S(C)(=O)=O)cc2)c(=O)c2ccc(Cl)cc2n1-c1ccccc1` [7-chloro-3-(4-methanesulfonyl-benzyl)-4-oxo-1-phenyl-1,4-dihydro-quinoline-2-carboxylic acid methyl ester, reference compound]: the EC50 in experiment [1] worked out at 15 µM. In experiment [2], the “effect on the levels of phospho-(Ser63)-c-jun in the kidneys” value is on record as “No significant effect” and the “effect on the levels of phospho-(Ser63)-c-jun in the livers” value is on record as “No significant effect”. In experiment [3], the IC50 came out at 0.032 µM.
Turning to `COC(=O)c1c(Cc2ccc(C(=O)N[C@@H]3[C@@H]4C[C@@H]5C[C@H]3C[C@@](O)(C5)C4)cc2)c(=O)c2cccnc2n1-c1ccccc1` [Compound I-1, rel-3-[4-((1S,2S,3R,5S,7S)-5-Hydroxy-adamantan-2-ylcarbamoyl)-benzyl]-4-oxo-1-phenyl-1,4-dihydro-[1,8]naphthyridine-2-carboxylic acid methyl ester], the Kidney phospho-c-jun in experiment [4] is recorded as 59.6 (30.0) %. Also, the EC50 in experiment [1] is 4.1 µM. Further, 0.012 µM corresponded to half-maximal inhibition in experiment [3] (IC50).
`COC(=O)c1c(Cc2ccc(C(=O)N[C@@H]3[C@@H]4C[C@@H]5C[C@H]3C[C@@](O)(C5)C4)cc2OC)c(=O)c2cccnc2n1-c1ccccc1` [Compound I-23, rel-3-[4-((1S,2S,3R,5S,7S)-5-Hydroxy-adamantan-2-ylcarbamoyl)-2-methoxy-benzyl]-4-oxo-1-phenyl-1,4-dihydro-[1,8]naphthyridine-2-carboxylic acid methyl ester]: the EC50 in experiment [1] is 7.8 µM. The same compound registered an IC50 in experiment [3] of 0.027 µM.
Take `COC(=O)c1c(Cc2ccc(C(=O)N[C@@H]3[C@@H]4C[C@@H]5C[C@H]3C[C@@](O)(C5)C4)cc2F)c(=O)c2cccnc2n1-c1ccccc1` [Compound I-24, rel-3-[2-Fluoro-4-((1S,2S,3R,5S,7S)-5-hydroxy-adamantan-2-ylcarbamoyl)-benzyl]-4-oxo-1-phenyl-1,4-dihydro-[1,8]naphthyridine-2-carboxylic acid methyl ester]: the EC50 in experiment [1] was found to be 8.6 µM. The compound also showed an IC50 in experiment [3] of 0.034 µM.
Turning to `COC(=O)c1c(Cc2ccc(C(=O)N[C@@H]3[C@@H]4C[C@@H]5C[C@H]3C[C@@](O)(C5)C4)cc2)c(=O)c2ccc(C(F)(F)F)nc2n1-c1ccccc1` [Compound I-25, rel-3-[4-((1S,2S,3R,5S,7S)-5-Hydroxy-adamantan-2-ylcarbamoyl)-benzyl]-4-oxo-1-phenyl-7-trifluoromethyl-1,4-dihydro-[1,8]naphthyridine-2-carboxylic acid methyl ester], in experiment [1], the EC50 is 3.6 µM. The IC50 in experiment [3] came out at 0.077 µM.
For `COC(=O)c1c(Cn2ccc(C(=O)N[C@@H]3[C@@H]4C[C@@H]5C[C@H]3C[C@@](O)(C5)C4)cc2=O)c(=O)c2ccc(Cl)cc2n1-c1ccccc1` [Compound I-26, rel-7-Chloro-3-[4-((1S,2S,3R,5S,7S)-5-hydroxy-adamantan-2-ylcarbamoyl)-2-oxo-2H-pyridin-1-ylmethyl]-4-oxo-1-phenyl-1,4-dihydro-quinoline-2-carboxylic acid methyl ester], in experiment [1], the EC50 came out at 3.9 µM. The same compound yielded an IC50 in experiment [3] of 0.04 µM.
In the same order, the values of `O=C(N[C@@H]1[C@@H]2C[C@@H]3C[C@H]1C[C@@](O)(C3)C2)c1ccc(Cc2c(-c3ncco3)n(-c3ccccc3)c3cc(Cl)ccc3c2=O)cc1` [Compound I-27, Rel-4-(7-Chloro-2-oxazol-2-yl-4-oxo-1-phenyl-1,4-dihydro-quinolin-3-ylmethyl)-N-((1S,2S,3R,5S,7S)-5-hydroxy-adamantan-2-yl)-benzamide] are 8.6 µM and 0.027 µM.
